The record followed here is PMC8467136, “Enabling Efficient Folding and High-Resolution Crystallographic Analysis of Bracelet Cyclotides” (Molecules, 2021).

Data set [1] has as its system POPC/POPE (80:20) model membrane. Kind of data set: Membrane binding to POPC/POPE lipid bilayers by surface plasmon resonance (SPR). Conditions: for P/L Max, peptide-to-lipid maximum binding value / Kd: BIAcore T200, L1 chip, POPC/POPE (80:20) bilayer, 10 mM HEPES, 150 mM NaCl; for P/L Max, peptide-to-lipid maximum binding value: pH 7.4, injection 180 s, dissociation 600 s, nonlinear regression; for Kd: pH 7.4, nonlinear regression, read-out: KD, peptide concentration required to achieve half-maximum binding at equilibrium. The source says:
Cyclotides are reported to exert their biological activities via membrane binding, particularly by selective binding to lipids containing phosphatidylethanolamine (PE) headgroups. Therefore, to evaluate the functional impact of the single mutation on bracelet cyclotides, the membrane-binding ability of these variants towards PE-containing lipid bilayers was examined using surface plasmon resonance (SPR). The model membrane comprising 80% 1-palmitoyloleoyl-phosphatidylcholine (POPC) and 20% 1-palmitoyloleoyl-phosphatidylethanolamine (POPE) was used. Binding affinity was evaluated by the peptide-to-lipid maximum binding value (P/L max, mol/mol) and the peptide concentration required to achieve half-maximum binding at equilibrium (KD value, μM). […] The negative effect of the [I11G] bracelet cyclotide mutation on lipid binding was expected, as the mutation reduces surface hydrophobicity, a previously reported determinant of membrane binding. The SPR dose-response curves and sensorgrams are shown in Figure S4 in Supplementary Material.
The binding affinity of bracelet cyclotides and their variants toward lipid bilayers was studied using SPR, as described previously. Two synthetic lipids, 1-palmitoyl-2-oleoyl-glycero-3-phosphocholine (POPC) and 1-palmitoyl-2-oleoyl-sn-glycero-3-phosphoethanolamine (POPE), were purchased from Avanti Polar Lipids (USA). Briefly, homogenous, small, unilamellar vesicles composed of POPC/POPE (80:20, mol/mol) were obtained by extruding the vesicle suspension through a 50-nm pore size polycarbonate membrane. L1 sensor chips and BIAcore T200 instrument were used (Cytiva, Marlborough, MA, USA). After the lipid was loaded and formed a bilayer membrane on the L1 chip, peptide solutions were injected over the lipid surface for 180 s and the dissociation was monitored for 600 s. Peptides were tested at concentrations ranging from 4–32 μM. Peptide-to-lipid molar ratio and KD values were calculated by nonlinear regression using GraphPad Prism software (version 8.3.1). Peptide solutions and lipid vesicles were prepared in HEPES buffer (10 mM HEPES, 150 mM NaCl, pH 7.4, filtered) for SPR studies.
(In general: In SPR one partner is held on a chip, and binding of the other changes the refractive index at the surface.)

The test system of another data set is HeLa cells. Kind of data set: Cytotoxicity against HeLa cells, resazurin assay. In kind it is cell-based. The conditions noted are these: 5000 cells/well, 24-h incubation with peptide, then resazurin 18 h, triplicate, mean ± SEM. On the procedure: To further confirm the activity of these mutants, their cytotoxicity against HeLa cancer cells was evaluated along with wild-type bracelet cyclotides. […] Of the four [I11G] mutants, the hyen D analogue had the highest activity, possibly because hyen D has one more hydrophobic residue in loop 3 compared to the other three cyclotides, which may contribute to its higher lipid-binding capacity (P/L max = 0.37) and help offset the hydrophobicity loss caused by the [I11G] mutation.
The cytotoxicity of the peptides was evaluated using the resazurin assay, as described previously. HeLa cells were seeded at 5000 cells/well in a 96-well, flat-bottomed plate one day prior to the experiments. Peptide solutions were prepared in water and incubated with HeLa cells at concentrations ranging from 16 to 0.125 μM or 8 to 0.063 μM in triplicate (final concentrations). Water and 1% Triton X-100 (TX) were applied as negative and positive control, respectively. After 24-h incubation, 10 μL of resazurin (0.05%, w/v) was added and incubated with cells for another 18 h. The absorbance was measured at 540 and 620 nm on a microplate reader (Infinite M1000 Pro microplate reader, Tecan, Switzerland). The percentage of cell death was quantified by calculating the absorbance ratio, R (R = absorbance at 620/540), and applying the following equation: % Cell death = (Rsample − RH2O)/(RTX − RH2O) × 100. Data were analyzed with GraphPad Prism software (version 8.3.1) using Specific binding with Hill slope algorithm.
Background: Alamar Blue is a resazurin reagent that responds to reducing activity.

Bridge positions count the residues as written; N and C are the ends. Peptide text beside a SMILES is read from it. Bounds are passed on as bounds.

`CC[C@H](C)[C@@H]1NC(=O)[C@H](C)NC(=O)[C@H](CO)NC(=O)[C@H](CO)NC(=O)[C@H]([C@@H](C)CC)NC(=O)[C@@H]2CSSC[C@@H]3NC(=O)[C@H](C(C)C)NC(=O)[C@H](CCCCN)NC(=O)[C@H](CO)NC(=O)[C@H](CCCCN)NC(=O)[C@@H]4CSSC[C@H](NC(=O)[C@H](CO)NC(=O)[C@H](CCC(=O)O)NC(=O)CNC(=O)[C@H](CSSC[C@H](NC(=O)CNC1=O)C(=O)N[C@@H](CO)C(=O)N4)NC(=O)[C@@H]1CCCN1C(=O)[C@H]([C@@H](C)CC)NC(=O)CNC(=O)[C@H](CC(N)=O)NC(=O)[C@H](CCCNC(=N)N)NC(=O)[C@H](Cc1ccc(O)cc1)NC3=O)C(=O)N[C@@H](C(C)C)C(=O)N[C@@H](Cc1c[nH]c3ccccc13)C(=O)NCC(=O)N1CCC[C@H]1C(=O)N2` [[I11G]cyO2] (cyclo(AIGCSCKSKVCYRNGIPCGESCVWGPCISS); disulfide 4-18, 6-22, 11-27): in data set [1], the “P/L Max, peptide-to-lipid maximum binding value” (shortened to “P/L Max”) was “n.b. ^3”. In addition, the “CC50 on HeLa (half maximum cytotoxic concentration)” value (shortened to “CC50 on HeLa”) in the data set on HeLa cells is more than 64 µM.
Consider `CC[C@H](C)[C@@H]1NC(=O)CNC(=O)[C@H](CC(N)=O)NC(=O)[C@H](CCCNC(=N)N)NC(=O)[C@H](Cc2ccc(O)cc2)NC(=O)[C@@H]2CSSC[C@@H]3NC(=O)[C@@H]4CCCN4C(=O)CNC(=O)[C@H](Cc4c[nH]c5ccccc45)NC(=O)[C@H](C(C)C)NC(=O)[C@@H]4CSSC[C@H](NC(=O)[C@H](CO)NC(=O)[C@H](CSSC[C@H](NC(=O)[C@@H]5CCCN5C1=O)C(=O)NCC(=O)N[C@@H](CCC(=O)O)C(=O)N[C@@H](CO)C(=O)N4)NC(=O)CNC(=O)[C@H](C(C)C)NC(=O)[C@H](C)NC(=O)[C@H](CO)NC(=O)[C@H]([C@@H](C)O)NC(=O)[C@H](CC(C)C)NC3=O)C(=O)N[C@@H](CCCCN)C(=O)N[C@@H](CO)C(=O)N[C@@H](CCCCN)C(=O)N[C@@H](C(C)C)C(=O)N2` [[I11G]cyO9] (cyclo(AVGCSCKSKVCYRNGIPCGESCVWGPCLTS); disulfide 4-18, 6-22, 11-27), for which, in data set [1], the “P/L Max” value is “n.b”. For the same compound, the “CC50 on HeLa” value in the data set with HeLa cells was more than 64 µM.
On to `CC[C@H](C)[C@@H]1NC(=O)[C@H](C)NC(=O)[C@H](C)NC(=O)[C@H]([C@@H](C)O)NC(=O)[C@H](Cc2ccccc2)NC(=O)[C@@H]2CSSC[C@@H]3NC(=O)[C@H](C(C)C)NC(=O)[C@H](CCCCN)NC(=O)[C@H](CO)NC(=O)[C@H](CCCCN)NC(=O)[C@@H]4CSSC[C@H](NC(=O)[C@H](CO)NC(=O)[C@H](CCC(=O)O)NC(=O)CNC(=O)[C@H](CSSC[C@H](NC(=O)CNC1=O)C(=O)N[C@@H](CO)C(=O)N4)NC(=O)[C@@H]1CCCN1C(=O)[C@H](Cc1ccccc1)NC(=O)CNC(=O)[C@H](CC(N)=O)NC(=O)[C@H](CCCCN)NC(=O)[C@H](Cc1ccc(O)cc1)NC3=O)C(=O)N[C@@H](C(C)C)C(=O)N[C@@H](Cc1ccc(O)cc1)C(=O)NCC(=O)N1CCC[C@H]1C(=O)N2` [[I11G]hD] (cyclo(AAIGCSCKSKVCYKNGFPCGESCVYGPCFT); disulfide 5-19, 7-23, 12-28), for which, in data set [1], the “P/L Max” value is 0.24 ± 0.01 mol/mol and the Kd worked out at 81 ± 7.91 µM. Also, in data set [1] (POPC/POPE (80:20), compared with hyen D), the “Fold weaker affinity to membranes compared to parent peptide” value stood at 18 fold. Moreover, the “CC50 on HeLa” value in the data set with HeLa cells was 50.2 ± 4.61 µM.
`CC[C@H](C)[C@@H]1NC(=O)[C@@H]2CSSC[C@@H]3NC(=O)[C@H](C(C)C)NC(=O)[C@H](CCCCN)NC(=O)[C@H](CC(=O)O)NC(=O)[C@H]([C@@H](C)O)NC(=O)[C@@H]4CSSC[C@H](NC(=O)[C@H](CO)NC(=O)[C@H](CCC(=O)O)NC(=O)CNC(=O)[C@H](CSSC[C@H](NC(=O)CNC(=O)[C@H]([C@@H](C)CC)NC(=O)[C@H](C(C)C)NC(=O)CNC(=O)[C@H](CO)NC1=O)C(=O)N[C@@H](CO)C(=O)N4)NC(=O)[C@@H]1CCCN1C(=O)[C@H]([C@@H](C)O)NC(=O)CNC(=O)[C@H](CC(N)=O)NC(=O)[C@H](CC(C)C)NC(=O)[C@H](Cc1ccc(O)cc1)NC3=O)C(=O)N[C@@H](C(C)C)C(=O)N[C@@H](Cc1ccc(O)cc1)C(=O)NCC(=O)N1CCC[C@H]1C(=O)N2` [[I11G]kB5] (cyclo(CGESCVYGPCISGVIGCSCTDKVCYLNGTP); disulfide 1-17, 5-19, 10-24): the “P/L Max” value in data set [1] is “n.b”. Further, in the data set with HeLa cells, the “CC50 on HeLa” value is more than 64 µM.
In the case of `CC[C@H](C)[C@@H]1NC(=O)[C@H](C)NC(=O)[C@H](CO)NC(=O)[C@H](CO)NC(=O)[C@H]([C@@H](C)CC)NC(=O)[C@@H]2CSSC[C@@H]3NC(=O)[C@H](C(C)C)NC(=O)[C@H](CCCCN)NC(=O)[C@H](CO)NC(=O)[C@H](CCCCN)NC(=O)[C@@H]4CSSC[C@H](NC(=O)[C@H](CO)NC(=O)[C@H](CCC(=O)O)NC(=O)CNC(=O)[C@H](CSSC[C@H](NC(=O)CNC1=O)C(=O)N[C@@H](CO)C(=O)N4)NC(=O)[C@@H]1CCCN1C(=O)[C@H]([C@@H](C)CC)NC(=O)CNC(=O)[C@H](CC(N)=O)NC(=O)[C@H](CCCNC(=N)N)NC(=O)[C@H](Cc1ccc(O)cc1)NC3=O)C(=O)N[C@@H](C(C)C)C(=O)N[C@@H](Cc1c[nH]c3ccccc13)C(=O)N[C@@H](CC(C)C)C(=O)N1CCC[C@H]1C(=O)N2` [[I11L]cyO2] (cyclo(AIGCSCKSKVCYRNGIPCGESCVWLPCISS); disulfide 4-18, 6-22, 11-27), in data set [1], the “P/L Max” value was 0.31 ± 0.01 mol/mol and the Kd amounted to 4.71 ± 0.17 µM. For the same compound, the “CC50 on HeLa” value with HeLa cells came to 0.95 ± 0.08 µM.
In the same order, the values of `CC[C@H](C)[C@@H]1NC(=O)CNC(=O)[C@H](CC(N)=O)NC(=O)[C@H](CCCNC(=N)N)NC(=O)[C@H](Cc2ccc(O)cc2)NC(=O)[C@@H]2CSSC[C@@H]3NC(=O)[C@@H]4CCCN4C(=O)[C@H](CC(C)C)NC(=O)[C@H](Cc4c[nH]c5ccccc45)NC(=O)[C@H](C(C)C)NC(=O)[C@@H]4CSSC[C@H](NC(=O)[C@H](CO)NC(=O)[C@H](CSSC[C@H](NC(=O)[C@@H]5CCCN5C1=O)C(=O)NCC(=O)N[C@@H](CCC(=O)O)C(=O)N[C@@H](CO)C(=O)N4)NC(=O)CNC(=O)[C@H](C(C)C)NC(=O)[C@H](C)NC(=O)[C@H](CO)NC(=O)[C@H]([C@@H](C)O)NC(=O)[C@H](CC(C)C)NC3=O)C(=O)N[C@@H](CCCCN)C(=O)N[C@@H](CO)C(=O)N[C@@H](CCCCN)C(=O)N[C@@H](C(C)C)C(=O)N2` [[I11L]cyO9] (cyclo(AVGCSCKSKVCYRNGIPCGESCVWLPCLTS); disulfide 4-18, 6-22, 11-27) are 0.31 ± 0.00 mol/mol, 4.26 ± 0.06 µM and 1.06 ± 0.03 µM.
In the same order, the values of `CC[C@H](C)[C@@H]1NC(=O)[C@H](C)NC(=O)[C@H](C)NC(=O)[C@H]([C@@H](C)O)NC(=O)[C@H](Cc2ccccc2)NC(=O)[C@@H]2CSSC[C@@H]3NC(=O)[C@H](C(C)C)NC(=O)[C@H](CCCCN)NC(=O)[C@H](CO)NC(=O)[C@H](CCCCN)NC(=O)[C@@H]4CSSC[C@H](NC(=O)[C@H](CO)NC(=O)[C@H](CCC(=O)O)NC(=O)CNC(=O)[C@H](CSSC[C@H](NC(=O)CNC1=O)C(=O)N[C@@H](CO)C(=O)N4)NC(=O)[C@@H]1CCCN1C(=O)[C@H](Cc1ccccc1)NC(=O)CNC(=O)[C@H](CC(N)=O)NC(=O)[C@H](CCCCN)NC(=O)[C@H](Cc1ccc(O)cc1)NC3=O)C(=O)N[C@@H](C(C)C)C(=O)N[C@@H](Cc1ccc(O)cc1)C(=O)N[C@@H](CC(C)C)C(=O)N1CCC[C@H]1C(=O)N2` [[I11L]hD] (cyclo(AAIGCSCKSKVCYKNGFPCGESCVYLPCFT); disulfide 5-19, 7-23, 12-28) are 0.36 ± 0.01 mol/mol, 4.39 ± 0.5 µM and 0.70 ± 0.02 µM.
